Our source for the EC50 and IC50 values is patent US11066414B2, “Cot modulators and methods of use thereof” (Gilead Sciences, Inc., priority 2015, dated 2021).

Molecules are shown by their SMILES. pEC50, pIC50: −log10 of the molar value.

What is called pEC50 is the negative decadic logarithm of the EC50, by convention in mol/L. Broadly, the pIC50 is the IC50 on a negative log10 scale, so that one unit is a factor of ten.

For one assay, the system named is TNFα. Kind of assay: Cot Monocyte TNFα Cell Based Assay. The following applies: Homo sapiens, Monocyte, read-out: EC50 TNF, LPS-stimulated human monocytes, TNFα.
Another assay has as its target Human Cot (Homo sapiens (Human), UniProt P41279). As to the kind of experiment: High Throughput Cot Biochemical Assay. The following applies: IC50 HTRF, Cot HTRF (TR-FRET) biochemical assay. (In general: TR-FRET usually uses a lanthanide donor and a delayed reading to cut background.)

Sequence of Human Cot (P41279 30-397): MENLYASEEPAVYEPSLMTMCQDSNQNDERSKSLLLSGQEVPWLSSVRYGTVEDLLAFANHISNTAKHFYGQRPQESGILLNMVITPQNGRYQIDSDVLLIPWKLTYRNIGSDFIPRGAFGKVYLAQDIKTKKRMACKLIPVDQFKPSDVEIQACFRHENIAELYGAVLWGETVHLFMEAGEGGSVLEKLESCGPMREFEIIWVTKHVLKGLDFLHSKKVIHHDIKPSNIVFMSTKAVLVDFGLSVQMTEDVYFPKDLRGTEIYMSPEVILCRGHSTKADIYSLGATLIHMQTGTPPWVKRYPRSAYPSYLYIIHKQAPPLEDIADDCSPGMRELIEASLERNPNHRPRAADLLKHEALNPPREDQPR

Consider `Cc1ncccc1[C@H](Nc1cc(Cl)c2ncc(C#N)c(NCC(C)(C)C)c2c1)c1cn(C2CC2)nn1` [Example 131, (S)-8-chloro-6-(((1-cyclopropyl-1H-1,2,3-triazol-4-yl)(2-methylpyridin-3-yl)methyl)amino)-4-(neopentyl-amino)quinoline-3-carbonitrile], for which the negative-log EC50 (pEC50) in the assay on TNFα is 7.31. The pIC50 on Human Cot is 8.70.

In the case of `[2H][C@](Nc1cc(Cl)c2ncc(C#N)c(N[C@H](CC)c3ccccc3)c2c1)(c1ccc(F)nc1)c1c[nH]nn1` [Example 134, 8-chloro-6-(((S)-(6-fluoropyridin-3-yl)(1H-1,2,3-triazol-4-yl)methyl-d)amino)-4-(((R)-1-phenylpropyl)amino)quinoline-3-carbonitrile], in the assay with TNFα, the pEC50 was 6.71. The compound also gave a pIC50 at Human Cot of 8.22.

Take `[2H][C@](Nc1cc(Cl)c2ncc(C#N)c(NCC(C)(C)C)c2c1)(c1cccnc1)c1cn(-c2cccnc2)nn1` [Example 138, (S)-8-chloro-4-(neopentylamino)-6-((pyridin-3-yl(1-(pyridin-3-yl)-1H-1,2,3-triazol-4-yl)methyl-d)amino)quinoline-3-carbonitrile]: the pEC50 in the assay with TNFα was 6.85. This compound had a pIC50 at Human Cot of 8.52.

Take `[2H][C@](Nc1cc(Cl)c2ncc(C#N)c(Nc3cnc(F)c(Cl)c3)c2c1)(c1ccc(F)nc1)c1cn(C2CC2)nn1` [Example 139, (S)-8-chloro-4-((5-chloro-6-fluoropyridin-3-yl)amino)-6-(((1-cyclopropyl-1H-1,2,3-triazol-4-yl)(6-fluoropyridin-3-yl)methyl-d)amino)quinoline-3-carbonitrile]: the pEC50 in the assay on TNFα was 7.04. For the same compound, at Human Cot, the pIC50 is 8.70.

In the case of `[2H][C@](Nc1cc(Cl)c2ncc(C#N)c(Nc3cnc(F)c(F)c3)c2c1)(c1ccc(F)nc1)c1cn(C2CC2)nn1` [Example 140, (S)-8-chloro-6-(((1-cyclopropyl-1H-1,2,3-triazol-4-yl)(6-fluoropyridin-3-yl)methyl-d)amino)-4-((5,6-difluoropyridin-3-yl)amino)quinoline-3-carbonitrile], the pEC50 with TNFα is 6.74. The pIC50 at Human Cot is 8.52.

Take `[2H][C@](Nc1cc(Cl)c2ncc(C#N)c(NCC(C)(C)C)c2c1)(c1cccnc1)c1cn(C2CC2)nn1` [Example 141, (S)-8-chloro-6-(((1-cyclopropyl-1H-1,2,3-triazol-4-yl)(pyridin-3-yl)methyl-d)amino)-4-(neopentylamino)quinoline-3-carbonitrile]: the pEC50 with TNFα was 6.92. At Human Cot, the negative-log IC50 (pIC50) was 8.70.

Regarding `[2H][C@](Nc1cc(Cl)c2ncc(C#N)c(NCC(C)(C)C)c2c1)(c1ccc(F)nc1)c1cn(C2CC2)nn1` [Example 142, (S)-8-chloro-6-(((1-cyclopropyl-1H-1,2,3-triazol-4-yl)(6-fluoropyridin-3-yl)methyl-d)amino)-4-(neopentylamino)quinoline-3-carbonitrile], the pEC50 with TNFα was 7.18. The same compound showed a pIC50 against Human Cot of 8.70.

With `[2H][C@](Nc1cc(Cl)c2ncc(C#N)c(Nc3cnc(F)c(F)c3)c2c1)(c1cncc(C#N)c1)c1cn(C2CC2)nn1` [Example 143, (S)-8-chloro-6-(((5-cyanopyridin-3-yl)(1-cyclopropyl-1H-1,2,3-triazol-4-yl)methyl-d)amino)-4-((5,6-difluoropyridin-3-yl)amino)quinoline-3-carbonitrile], the pEC50 with TNFα was 6.05. In addition, the negative-log IC50 (pIC50) on Human Cot was 7.80.

Take `N#Cc1cnc2c(Cl)cc(N[C@@H](c3cncc(Cl)c3)c3cn(C4CC4)nn3)cc2c1Nc1cnc(F)c(F)c1` [Example 146, (S)-8-chloro-6-(((5-chloropyridin-3-yl)(1-cyclopropyl-1H-1,2,3-triazol-4-yl)methyl)amino)-4-((5,6-difluoropyridin-3-yl)amino)-quinoline-3-carbonitrile]: the negative logarithm of the EC50 (pEC50) in the assay on TNFα is 6.43. Besides, the pIC50 against Human Cot is 8.00.

Consider `N#Cc1cnc2c(Cl)cc(N[C@H](c3cn(C4CC4)nn3)c3ccc(F)nc3F)cc2c1Nc1cnc(F)c(F)c1` [Example 149, (S)-8-chloro-6-(((1-cyclopropyl-1H-1,2,3-triazol-4-yl)(2,6-difluoropyridin-3-yl)methyl)amino)-4-((5,6-difluoropyridin-3-yl)amino)quinoline-3-carbonitrile], for which, in the assay with TNFα, the pEC50 is 6.42. Moreover, the pIC50 against Human Cot was 8.10.

`Cc1ncccc1[C@H](Nc1cc(Cl)c2ncc(C#N)c(Nc3cnc(F)c(F)c3)c2c1)c1cn(C2CC2)nn1` [Example 150, (S)-8-chloro-6-(((1-cyclopropyl-1H-1,2,3-triazol-4-yl)(2-methylpyridin-3-yl)methyl)amino)-4-((5,6-difluoropyridin-3-yl)amino)quinoline-3-carbonitrile]: in the assay with TNFα, the pEC50 is 6.81. This compound gave a pIC50 on Human Cot of 8.40.

With `N#Cc1cnc2c(Cl)cc(N[C@H](c3c[nH]nn3)c3cccnc3F)cc2c1Nc1cnc(F)c(F)c1` [Example 151, (S)-8-chloro-4-((5,6-difluoropyridin-3-yl)amino)-6-(((2-fluoropyridin-3-yl)(1H-1,2,3-triazol-4-yl)methyl)amino)quinoline-3-carbonitrile], the negative logarithm of the EC50 (pEC50) in the assay with TNFα was 5.88. Moreover, the negative logarithm of the IC50 (pIC50) against Human Cot was 8.10.

Turning to `N#Cc1cnc2c(Cl)cc(N[C@@H](c3cncc(Cl)c3)c3c[nH]nn3)cc2c1Nc1cnc(F)c(F)c1` [Example 152, (S)-8-chloro-6-(((5-chloropyridin-3-yl)(1H-1,2,3-triazol-4-yl)methyl)amino)-4-((5,6-difluoropyridin-3-yl)amino)quinoline-3-carbonitrile], in the assay on TNFα, the negative-log EC50 (pEC50) was 6.04. The compound further showed a pIC50 on Human Cot of 8.00.

Regarding `N#Cc1cnc2c(Cl)cc(N[C@H](c3c[nH]nn3)c3cnccc3Cl)cc2c1Nc1cnc(F)c(F)c1` [Example 153, (S)-8-chloro-6-(((4-chloropyridin-3-yl)(1H-1,2,3-triazol-4-yl)methyl)amino)-4-((5,6-difluoropyridin-3-yl)amino)quinoline-3-carbonitrile], the negative logarithm of the EC50 (pEC50) in the assay on TNFα is 5.42. Besides, the negative-log IC50 (pIC50) on Human Cot was 7.36.

In the case of `N#Cc1cnc2c(Cl)cc(N[C@H](c3c[nH]nn3)c3ccc(F)nc3F)cc2c1Nc1cnc(F)c(F)c1` [Example 154, (S)-8-chloro-6-(((2,6-difluoropyridin-3-yl)(1H-1,2,3-triazol-4-yl)methyl)amino)-4-((5,6-difluoropyridin-3-yl)amino)quinoline-3-carbonitrile], the pEC50 in the assay on TNFα is 5.78. Also, at Human Cot, the pIC50 is 7.59.

Take `[2H][C@](Nc1cc(Cl)c2ncc(C#N)c(N[C@H](CC)c3ccccc3)c2c1)(c1ccc(F)nc1)c1cn(C2CC2)nn1` [Example 155, 8-chloro-6-(((S)-(1-cyclopropyl-1H-1,2,3-triazol-4-yl)(6-fluoropyridin-3-yl)methyl-d)amino)-4-(((R)-1-phenylpropyl)amino)quinoline-3-carbonitrile]: the pEC50 in the assay with TNFα is 7.10. The compound further had a pIC50 at Human Cot of 8.70.

With `CC(C)n1cc([C@@H](Nc2cc(Cl)c3ncc(C#N)c(Nc4ccc(F)c(Cl)c4)c3c2)c2cccn3nccc23)nn1` [Example 157, (S)-8-chloro-4-((3-chloro-4-fluorophenyl)amino)-6-(((1-isopropyl-1H-1,2,3-triazol-4-yl)(pyrazolo[1,5-a]pyridin-4-yl)methyl)amino)-quinoline-3-carbonitrile], the pEC50 in the assay with TNFα was 6.90. The pIC50 against Human Cot is 8.30.

Consider `[2H][C@](Nc1cc(Cl)c2ncc(C#N)c(N[C@H](CC)c3ccccc3)c2c1)(c1cccnc1)c1cn(C2CC2)nn1` [Example 159, 8-chloro-6-(((S)-(1-cyclopropyl-1H-1,2,3-triazol-4-yl)(pyridin-3-yl)methyl-d)amino)-4-(((R)-1-phenylpropyl)amino)quinoline-3-carbonitrile], for which, in the assay on TNFα, the pEC50 is 7.02. The compound also gave a pIC50 at Human Cot of 8.70.

As for `N#Cc1cnc2c(Cl)cc(N[C@@H](c3cccnc3)c3cn(-c4ccccc4)nn3)cc2c1Nc1cnc(F)c(F)c1` [Example 160, (S)-8-chloro-4-((5,6-difluoropyridin-3-yl)amino)-6-(((1-phenyl-1H-1,2,3-triazol-4-yl)(pyridin-3-yl)methyl)amino)quinoline-3-carbonitrile], the pEC50 with TNFα is 6.32. Also, the pIC50 on Human Cot is 7.96.

Regarding `[2H][C@](Nc1cc(Cl)c2ncc(C#N)c(Nc3cnc(F)c(F)c3)c2c1)(c1cccnc1)c1cn(-c2ccccc2)nn1` [Example 162, (S)-8-chloro-4-((5,6-difluoropyridin-3-yl)amino)-6-(((1-phenyl-1H-1,2,3-triazol-4-yl)(pyridin-3-yl)methyl-d)amino)quinoline-3-carbonitrile], the pEC50 in the assay on TNFα was 6.37. The compound further had a negative logarithm of the IC50 (pIC50) on Human Cot of 8.15.

As to `[2H][C@](Nc1cc(Cl)c2ncc(C#N)c(Nc3cnc(F)c(F)c3)c2c1)(c1cccnc1)c1c[nH]nn1` [Example 164, (S)-8-chloro-4-((5,6-difluoropyridin-3-yl)amino)-6-((pyridin-3-yl(1H-1,2,3-triazol-4-yl)methyl-d)amino)quinoline-3-carbonitrile], in the assay with TNFα, the pEC50 was 5.74. The pIC50 at Human Cot is 8.30.

In the case of `Cn1nccc1[C@H](Nc1cc(Cl)c2ncc(C#N)c(Nc3cnc(F)c(F)c3)c2c1)c1c[nH]nn1` [Example 165, (S)-8-chloro-4-((5,6-difluoropyridin-3-yl)amino)-6-(((1-methyl-1H-pyrazol-5-yl)(1H-1,2,3-triazol-4-yl)methyl)amino)quinoline-3-carbonitrile], the negative-log EC50 (pEC50) in the assay on TNFα was 5.63. In addition, the pIC50 against Human Cot was 8.05.

`N#Cc1cnc2c(Cl)cc(N[C@@H](c3ccc(F)nc3)c3c[nH]nn3)cc2c1Nc1cnc(F)c(F)c1` [Example 166, (S)-8-chloro-4-((5,6-difluoropyridin-3-yl)amino)-6-(((6-fluoropyridin-3-yl)(1H-1,2,3-triazol-4-yl)methyl)amino)quinoline-3-carbonitrile]: in the assay on TNFα, the pEC50 was 5.85. At Human Cot, the pIC50 was 8.22.

On to `CC(C)(C)CNc1c(C#N)cnc2c(Cl)cc(N[C@@H](c3cccnc3)c3c[nH]nn3)cc12` [Example 167, (S)-8-chloro-4-(neopentylamino)-6-((pyridin-3-yl(1H-1,2,3-triazol-4-yl)methyl)amino)quinoline-3-carbonitrile], for which the pEC50 in the assay with TNFα was 6.30. The compound further had a pIC50 against Human Cot of 8.40.
